In brackets after ≈: the same amount, converted by molar mass.
Assays:
Format in all cases: functional
Escherichia coli = experiment: Antibacterial activity against Escherichia coli ATCC 25922 after 16 to 20 hrs by agar dilution method
Staphylococcus aureus = experiment: Antibacterial activity against Staphylococcus aureus ATCC 29213 after 16 to 20 hrs by agar dilution method
Enterococcus faecalis = experiment: Antibacterial activity against Enterococcus faecalis ATCC 29212 after 16 to 20 hrs by agar dilution method
Pseudomonas aeruginosa = experiment: Antibacterial activity against Pseudomonas aeruginosa ATCC 27853 after 16 to 20 hrs by agar dilution method
Candida albicans = experiment: Antifungal activity against Candida albicans ATCC 10231 after 48 hrs by agar dilution method; settings: ATCC 10231, 48 h
Candida tropicalis = experiment: Antifungal activity against Candida tropicalis ATCC 13803 after 48 hrs by agar dilution method; settings: ATCC 13803, 48 h

CCOc1ccccc1OCCn1c[n+](Cc2ccc(C(C)(C)C)cc2)c2ccccc21.[Br-]
MIC (Escherichia coli): 50 µg/mL | MIC (Staphylococcus aureus): 50 µg/mL | MIC (Enterococcus faecalis): 200 µg/mL | MIC (Pseudomonas aeruginosa): 400 µg/mL | MIC (Candida albicans): 50 µg/mL | MIC (Candida tropicalis): 50 µg/mL

CCOc1ccccc1OCCn1c[n+](CCOC)c2ccccc21.[Br-]
MIC (Escherichia coli): 800 µg/mL | MIC (Staphylococcus aureus): 800 µg/mL | MIC (Enterococcus faecalis): 800 µg/mL | MIC (Pseudomonas aeruginosa): 800 µg/mL | MIC (Candida albicans): 800 µg/mL | MIC (Candida tropicalis): 800 µg/mL

CCOc1ccccc1OCCn1c[n+](Cc2ccc(C(C)C)cc2)c2ccccc21.[Br-]
MIC (Escherichia coli): 800 µg/mL | MIC (Staphylococcus aureus): 800 µg/mL | MIC (Enterococcus faecalis): 800 µg/mL | MIC (Pseudomonas aeruginosa): 800 µg/mL | MIC (Candida albicans): 400 µg/mL | MIC (Candida tropicalis): 400 µg/mL

CCCC[n+]1cn(CCOc2ccccc2OCC)c2ccccc21.[Br-]
MIC (Escherichia coli): 50 µg/mL | MIC (Staphylococcus aureus): 50 µg/mL | MIC (Enterococcus faecalis): 50 µg/mL | MIC (Pseudomonas aeruginosa): 50 µg/mL | MIC (Candida albicans): 25 µg/mL | MIC (Candida tropicalis): 25 µg/mL

CCOc1ccccc1OCCn1c[n+](Cc2c(C)c(C)cc(C)c2C)c2ccccc21.[Br-]
MIC (Escherichia coli): 400 µg/mL | MIC (Staphylococcus aureus): 400 µg/mL | MIC (Enterococcus faecalis): 800 µg/mL | MIC (Pseudomonas aeruginosa): 800 µg/mL | MIC (Candida albicans): 400 µg/mL | MIC (Candida tropicalis): 400 µg/mL

CCOc1ccccc1OCCn1c[n+](CCOc2ccccc2OCC)c2ccccc21.[Br-]
MIC (Escherichia coli): 200 µg/mL | MIC (Staphylococcus aureus): 200 µg/mL | MIC (Enterococcus faecalis): 400 µg/mL | MIC (Pseudomonas aeruginosa): 400 µg/mL | MIC (Candida albicans): 200 µg/mL | MIC (Candida tropicalis): 200 µg/mL

CCOc1ccccc1OCCn1c[n+](Cc2c(C)cc(C)cc2C)c2ccccc21.[Br-]
MIC (Escherichia coli): 50 µg/mL | MIC (Staphylococcus aureus): 50 µg/mL | MIC (Enterococcus faecalis): 800 µg/mL | MIC (Pseudomonas aeruginosa): 800 µg/mL | MIC (Candida albicans): 50 µg/mL | MIC (Candida tropicalis): 50 µg/mL

CCOc1ccccc1OCCn1c[n+](Cc2cccc(OC)c2)c2ccccc21.[Cl-]
MIC (Escherichia coli): 800 µg/mL | MIC (Staphylococcus aureus): 800 µg/mL | MIC (Enterococcus faecalis): 800 µg/mL | MIC (Pseudomonas aeruginosa): 800 µg/mL | MIC (Candida albicans): 800 µg/mL | MIC (Candida tropicalis): 800 µg/mL

CC1(C)S[C@@H]2[C@H](NC(=O)[C@H](N)c3ccccc3)C(=O)N2[C@H]1C(=O)O [AMPICILLIN]
MIC (Escherichia coli): 3.12 µg/mL (≈ 8.93 µM) | MIC (Staphylococcus aureus): 3.12 µg/mL (≈ 8.93 µM) | MIC (Enterococcus faecalis): 1.56 µg/mL (≈ 4.46 µM)

O=C(O)c1cn(C2CC2)c2cc(N3CCNCC3)c(F)cc2c1=O [CIPROFLOXACIN]
MIC (Staphylococcus aureus): 0.39 µg/mL (≈ 1.18 µM) | MIC (Enterococcus faecalis): 0.78 µg/mL (≈ 2.35 µM) | MIC (Pseudomonas aeruginosa): 3.12 µg/mL (≈ 9.42 µM)

OC(Cn1cncn1)(Cn1cncn1)c1ccc(F)cc1F [FLUCONAZOLE]
MIC (Candida albicans): 3.12 µg/mL (≈ 10.2 µM) | MIC (Candida tropicalis): 3.12 µg/mL (≈ 10.2 µM)

— ChEMBL document CHEMBL3817806, “Novel benzimidazol-2-ylidene carbene precursors and their silver(I) complexes: Potential antimicrobial agents” (2016)
